The test system of data set [1] is Staphylcoccus aureus 1199B. The data set can be described thus: Checkerboard combination with norfloxacin or ethidium bromide. It counts as cell-based, Staphylococcus aureus. The following applies: compound at ½ MIC or 2 μM; additive not stated. As for the experimental part:
Two different strains of E. coli (Gram-negative) were used. The laboratory strain of E. coli, K-12 (ATCC Accession No. 700926), was used for preliminary MIC determinations. The tetracycline resistant strain of E. coli (Tet^R) was prepared by transforming competent JM109 E. coli (Promega) with the pBR322 plasmid (Carolina Biologicals) using the manufacturers protocol. This plasmid contains two resistance genes: the tetA gene expresses the tetracycline resistance TetA efflux pump (Sapunaric and Levy, Microbiol. 2005, 151, 2315-2322) and the amp^R gene expresses a β-lactamase enzyme (Bolivar, et al; Gene 1977, 2, 95-113) that cleaves the four membered ring of penicillin derivatives. The resulting E. coli, which we designate Tet^R E. coli, is both tetracycline and ampicillin resistant. The TetA efflux pump belongs to the major facilitator superfamily (MFS), spans the cytoplasmic membrane, and transports tetracycline from the cell cytoplasm to the periplasmic space (Thanassi, et al., J. Bacteriol. 1995, 177, 998-1007). This active efflux utilizes the proton gradient as an energy source (Levy, Antimicrob. Agents Chemother. 1992, 36, 695-703). […]
Similar experiments to those described in Example 7 above were conducted, wherein the antimicrobial activity of various compounds was determined against Staphylcoccus aureus 1199B. […]

The nature of data set [2]: Aggregate detection by dynamic light scattering. It counts as physicochemical. The following applies: 10.(HCl)2 at concentrations between 10 μM and 1 mM. From the text: Amphiphiles are known to enhance the permeability of bacterial boundary layers (Lambert and Hammond, Biochem. Biophys. Res. Commun. 1973, 54, 796-799; and Hancock, Lancet 1997, 349, 418-422). Amphiphiles are also known to form aggregates in aqueous solution. An effort to detect aggregates of 10 was made by using dynamic light scattering (DLS). Compound 10 was deemed to be the most amphiphilic (bola-amphiphilic) of the structures owing to the estimated maximal spacing of the amino groups (Fuhrhop, et al., J. Am. Chem. Soc. 1993, 115, 1600-1601). Solutions of 10.(HCl)2 at concentrations between 10 μM and 1 mM were prepared and examined by dynamic light scattering methods. At the highest concentration, it appeared that some aggregates formed, but the counts were low and the results were considered inconclusive.

The test system of another data set is HEK-293 cells. The data set can be described thus: Mammalian cell permeability and vitality, confocal microscopy (propidium iodide / fluorescein diacetate). The following applies: 2 hours. It counts as cell-based, human. As for the experimental part:
To test the permeability of HEK-293 cells, the cells were cultured in growth medium as described above. HEK-293 (90% confluent) were then seeded in a 96-well plate to get 30,000 cells/well. After 24 hours of incubation at 37° C. and 5% CO2, the spent media was replaced with media (DMEM and 10% FBS) containing compound 2 at either 20 μM or 80 μM. […] Triton X-100 at 0.1%—by volume (1670 μM) and DMSO 0.5% (v/v) were also used as controls. After 2 hours of incubation, spent media was replaced with PBS containing propidium iodide (30 μM) and fluorescein diacetate (60 μM) and incubated at 37° C. and 5% CO2. After 2 hour of incubation, the spend media was replaced with fresh PBS and the cells were observed under Zeiss LSM 700 confocal microscope. The images were reported without any alterations. The gain and the intensity in all the images were kept constant.
A compound that inhibits bacterial growth and penetrates into the microbe's cytosol may also penetrate into mammalian cells. A similar microscopic study was conducted with the human embryonic kidney (HEK-293) cell line. In this case, only compound 2 was studied. […] The microscopic study was therefore conducted at 20 μM, a value well below any inhibitory concentration, and at 80 μM, a concentration above all three MIC values. The 80 μM concentration was used to confirm the […] of 2 and to establish the lack of serum inhibition.

Consider `Cl.Cl.N[C@H](Cc1c[nH]c2ccccc12)C(=O)NCCCCCCCCCCCCNC(=O)[C@@H](N)Cc1c[nH]c2ccccc12` [Compound 10, (S)-1-((12-((R)-2-Ammonio-3-(1H-indol-3-yl)propanamido)dodecyl)amino)-3-(1H-indol-3-yl)-1-oxopropan-2-aminium chloride], for which, in data set [1], the “activity recovered (fold)” value came to 128 fold. Besides, in data set [2], the “aggregate formation in aqueous solution (DLS)” value is “inconclusive”.

As to `Cl.Cl.N[C@@H](Cc1c[nH]c2ccccc12)C(=O)Nc1cccc(NC(=O)[C@@H](N)Cc2c[nH]c3ccccc23)c1` [Compound 2, (2S,2′S)-1,1′-(1,3-Phenylenebis(azanediyl))bis(3-(1H-indol-3-yl)-1-oxopropan-2-aminium) chloride], the “cellular vitality (FDA fluorescence)” value in the data set with HEK-293 cells (20 μM) was “no loss of vitality”; in the data set on HEK-293 cells (80 μM), “some toxic effect was apparent”.
